# In patent US9340819B2, “Method for detecting the presence of carbapenemase-producing bacteria in a sample” (priority 2011, dated 2016):
# Assays:
# [1] = system: K. pneumoniae; test: MIC by Etest on Mueller-Hinton agar (Example 1); format: cell-based; conditions: Klebsiella pneumoniae, K. pneumoniae UK (10); NDM-1 + CTX-M-15 + CMY-4 + OXA-1
# Description: (§1) Prior to performing the method of the invention, susceptibility testings were performed by determining Minimum Inhibitory Concentration (MIC) values by the Etest® (AB bioMérieux; Solna, Sweden) on Mueller-Hinton agar plates at 37° C. and results of susceptibility testing were recorded according to the Clinical and Laboratory Standards Institute (CLSI) guidelines as modified in June 2010 (18). The breakpoints for imipenem are S≦1 μg/ml (susceptibility) and R≧4 μg/ml (resistant). As for those for ertapenem, they are S≦0.25 μg/ml and R≧1 μg/ml (see Tables 1 and 2).
# [2] = system: C. freundii; test: MIC by Etest on Mueller-Hinton agar (Example 1); format: cell-based; conditions: Citrobacter freundii; C. freundii STE (13); NDM-1 + OXA-1 + OXA-9 + OXA-10 + CTX-M-15 + TEM-1
# Description: as §1
# [3] = system: S. marcescens; test: MIC of carbapenem by Etest (Example 2); format: cell-based, Serratia marcescens
# Description: (§2) All strains had previously been characterized for their β-lactamase content at the molecular level. Minimum inhibitory concentration of carbapenem were determined using the Etest® (AB bioMérieux, Solna, Sweden) and results were recorded according to US guidelines (CLSI), as updated in 2011.
# [4] = system: E. coli; test: MIC by Etest on Mueller-Hinton agar (Example 1); format: cell-based, Escherichia coli; conditions: for MIC: Escherichia coli
# Description: as §1
# [5] = system: Salmonella spp.; test: MIC of carbapenem by Etest (Example 2); format: cell-based; conditions: Salmonella spp. KPC-2, n=1
# Description: as §2
# [6] = system: K. ozonae; test: MIC of carbapenem by Etest (Example 2); format: cell-based; conditions: K. ozonae KPC-3, n=1
# Description: as §2
# [7] = system: E. sakazaki; test: MIC of carbapenem by Etest (Example 2); format: cell-based; conditions: ESBL + decreased membrane permeability; E. sakazaki CTX-M-15, n=1
# Description: as §2
# [8] = system: E. coli; test: MIC of carbapenem by Etest (Example 2); format: cell-based, Escherichia coli
# Description: as §2
# [9] = system: P. rettgeri; test: MIC by Etest on Mueller-Hinton agar (Example 1); format: cell-based, Proteus rettgeri; conditions: Providencia rettgeri; P. rettgeri RAP (9); OXA-181 + OXA-1
# Description: as §1
# [10] = system: C. freundii; test: MIC of carbapenem by Etest (Example 2); format: cell-based, Citrobacter freundii
# Description: as §2
smiles,measurement,setting,value
"C[C@@H](O)[C@H]1C(=O)N2C(C(=O)O)=C(S[C@@H]3CN[C@H](C(=O)Nc4cccc(C(=O)O)c4)C3)[C@H](C)[C@H]12 [ERT, ertapenem]",MIC,[1],32 µg/mL
same,MIC,[2],> 32 µg/mL
same,MICs range,"[3]; S. marcescens IMP-1, n=2",>32 mg/L
same,MICs range,"[3]; S. marcescens IMP-11, n=1",>32 mg/L
same,MICs range,"[3]; S. marcescens KPC-2, n=2",>32 mg/L
same,MICs range,"[3]; S. marcescens SME-1, n=1",4 mg/L
same,MICs range,"[3]; S. marcescens SME-2, n=1",4 mg/L
same,MICs range,"[3]; S. marcescens VIM-2, n=1",>32 mg/L
same,MICs,"[4]; E. coli Ec13 SYD (23), plasmid mediated cephalosporinase CMY-2",0.06 µg/mL
same,MICs,"[4]; E. coli J53 (29), wild-type",0.06 µg/mL
same,MICs,"[4]; E. coli VMC (24), plasmid mediated cephalosporinase CMY-10",0.06 µg/mL
same,MIC,"[4]; E. coli 271 AUS (12), NDM-1 + CTX-M-15 + TEM-1",8 µg/mL
same,MIC,"[4]; E. coli 5649 GEN, NDM-1 + OXA-1 + CMY-30 + TEM-1",32 µg/mL
same,MIC,"[4]; E. coli (18), ESBL CTX-M-14",0.06 µg/mL
same,MIC,"[4]; E. coli (20), ESBL VEB-1",0.06 µg/mL
same,MIC,"[4]; E. coli ALL, NDM-1 + OXA-1 + OXA-2 + CTX-M-15 + TEM-1",8 µg/mL
same,MIC,"[4]; E. coli BOU, OXA-48 + CTX-M-15",1.5 µg/mL
same,MIC,"[4]; E. coli COL (2), KPC-2",0.5 µg/mL
same,MIC,"[4]; E. coli DIH, VIM-19",2 µg/mL
same,MIC,"[4]; E. coli DIN, KPC",> 32 µg/mL
same,MIC,"[4]; E. coli FOR, ESBL CTX-M-15",0.06 µg/mL
same,MIC,"[4]; E. coli HAN (7), OXA-48",1.5 µg/mL
same,MIC,"[4]; E. coli MAD (14), VIM-1 + CTX-M-3",0.5 µg/mL
same,MIC,"[4]; E. coli MAD, IMP-1",3 µg/mL
same,MIC,"[4]; E. coli PSP, KPC-2",2 µg/mL
same,MIC,"[4]; E. coli RIC, NDM-1 + OXA-1 + OXA-10 + CMY-16",8 µg/mL
same,MICs range,[5],1 mg/L
same,MICs range,[6],>32 mg/L
same,MICs range,[7],1.5 mg/L
same,MICs range,"[8]; E. coli IMP-1, n=2",3 to 4 mg/L
same,MICs range,"[8]; E. coli IMP-8, n=1",8 mg/L
same,MICs range,"[8]; E. coli OXA-48, n=6",0.5 to 16 mg/L
same,MICs range,"[8]; E. coli VIM-1, n=2",0.38 to 1.5 mg/L
same,MICs range,"[8]; E. coli VIM-2, n=2",0.5 to 1.5 mg/L
same,MICs range,"[8]; E. coli VIM-19, n=1",16 mg/L
same,MICs range,"[8]; ESBLs, E. coli CTX-M-1, n=1",0.12 mg/L
same,MICs range,"[8]; ESBLs, E. coli CTX-M-3, n=1",0.12 mg/L
same,MICs range,"[8]; ESBLs, E. coli CTX-M-14, n=2",0.12 mg/L
same,MICs range,"[8]; ESBLs, E. coli CTX-M-15, n=2",0.12 mg/L
same,MICs range,"[8]; ESBLs, E. coli VEB-1, n=1",0.12 mg/L
same,MICs range,"[8]; Plasmid mediated AmpC or chromosomal AmpC + decreased membrane permeability, E. coli ACC-1, n=1",0.12 mg/L
same,MICs range,"[8]; Plasmid mediated AmpC or chromosomal AmpC + decreased membrane permeability, E. coli CMY-2, n=1",0.12 mg/L
same,MICs range,"[8]; Plasmid mediated AmpC or chromosomal AmpC + decreased membrane permeability, E. coli CMY-10, n=1",0.38 mg/L
same,MICs range,"[8]; Plasmid mediated AmpC or chromosomal AmpC + decreased membrane permeability, E. coli DHA-1, n=1",0.12 mg/L
same,MICs range,"[8]; Plasmid mediated AmpC or chromosomal AmpC + decreased membrane permeability, E. coli Extended spectrum cephalosporinase, n=1",0.12 mg/L
same,MICs range,"[8]; Plasmid mediated AmpC or chromosomal AmpC + decreased membrane permeability, E. coli Overexpressed cephalosporinase, n=1",>32 mg/L
same,MIC,[9],2 µg/mL
same,MICs range,"[10]; C. freundii NDM-1, n=1",>32 mg/L
same,MICs range,"[10]; ESBL + decreased membrane permeability, C. freundii TEM-3, n=1",8 mg/L
